# From patent US20090068098A1, “ANTIBODIES AND RELATED MOLECULES THAT BIND TO 58P1D12 PROTEINS” (priority 2007, published 2009)
# Test system: LAPC9-AI androgen-independent prostate tumor xenografts
# Experiment: Established LAPC9-AI prostate tumor xenografts in tibiae, monotherapy and combination with Carboplatin
# Type: in vivo, mouse
# Details: day 33, vs control antibody; MAb 2 mg loading then 1.0 mg i.p. twice weekly, 7 doses; Carboplatin 40 mg/kg i.v. days 7, 11, 15, 19, 22, 26
# Procedure: FIG. 16. […] The tumors were allowed to establish for 7 days, at which time the animals were randomized and assigned to four different groups (n=10 in each group) as indicated in the graph. […] Carboplatin (40 mg/kg) was administered to the mice intravenously (i.v.) on days 7, 11, 15, 19, 22 and 26. On day 33 all mice were sacrificed and the tumors were excised and weighed on an electronic balance.
# The tumors were allowed to establish for 7 days, at which time the animals were randomized and assigned to four different groups (n=10 in each group). […] Carboplatin (40 mg/kg) was administered to the mice intravenously (i.v.) on days 7, 11, 15, 19, 22 and 26. On day 33 all mice were sacrificed and the tumors were excised and weighed on an electronic balance.
structure (smiles),measurement,value
N.N.O=C([O-])C1(C(=O)[O-])CCC1.[Pt+2] [Carboplatin],inhibition of tumor growth (tumor weight),87%
